Entries after “also recorded” stand apart in the source; their conditions may differ.
Experiments:
[1] = Detection of singlet oxygen with DPBF under 740 nm irradiation; format: physicochemical
Experimental: Preparation of DPBF@C18-PEG2k and TPBC@C18-PEG2k. To a solution of C18-Fc-PEG2k (10 mg mL^-1) in water (1 mL) was added a solution of TPBC (bacteriochlorin) or DPBF (1,3-diphenylisobenzofuran) (12.5 µL, 1 mg mL^-1) in chloroform (1 mL). The mixture was sonicated using an ultrasound sonicator probe (power 40%, 10 min, pulse) allowing TPBC or DPBF to be gradually encapsulated by evaporation of chloroform via heating of the probe. The resulting TPBC/DPBF@C18-Fc-PEG2k colloidal suspension was filtered on 0.45 µm nylon membrane to eliminate any free TPBC or DPBF from the medium.
Preparation of TPBC-DPBF@C18-PEG2k. To a solution of C18-Fc-PEG2k (10 mg mL^-1) in water (1 mL) was added a solution of TPBC (12.5 µL, 1 mg mL^-1) in chloroform (1 mL). The mixture was sonicated using an ultrasound sonicator probe (power 40%, 10 min, pulse) allowing TPBC to be gradually encapsulated by evaporation of chloroform via heating of the probe. […]
1,3-Diphenylisobenzofuran (DPBF) is a reagent for detecting singlet oxygen. […] The reaction was monitored using UV-vis spectroscopy (Fig. 8B). […]
First, we ensured that both TPBC and DPBF could be encapsulated into our C18-PEG2k micelles individually. […] TPBC-DPBF@C18-PEG2k was then irradiated under 740 nm light and the photoreaction was monitored by UV-vis spectroscopy every 20 sec (Fig. 9C).

[2] = Solubility in water by UV measurement; format: physicochemical; conditions: without micelles

| SMILES | stability of DPBF under NIR light ([1]; in DMSO, several minutes, without TPBC) | solubility in water [2] | time to complete degradation of DPBF ([1]; DPBF and TPBC in DMSO) [s] |
| --- | --- | --- | --- |
| c1ccc(-c2oc(-c3ccccc3)c3ccccc23)cc1 [DPBF, 1,3-diphenylisobenzofuran] | no alteration was observed | not soluble in water; also recorded: insoluble in water |  |
| c1ccc(-c2c3nc(c(-c4ccccc4)c4ccc([nH]4)c(-c4ccccc4)c4nc(c(-c5ccccc5)c5ccc2[nH]5)CC4)CC3)cc1 [TPBC, tetraphenylbacteriochlorin] |  | not soluble in water; also recorded: insoluble in water | 60 |
